Laboratory results published in US20240247048A1 (EMORY UNIVERSITY, priority 2021, published 2024).

Assays:
[1] = tested on: luciferase+ mouse T cells; experiment: proliferation of luciferase+ mouse T cells in vitro (plate-bound anti-CD3, luminescence); type: cell-based; conditions: 96 hours; for lowest concentration of peptide that led to maximal luminescence: luc+ T cell proliferation, plate-bound anti-CD3; for luc+ T cell proliferation: relative luminescence, quadruplicate wells, plate-bound anti-CD3, daily addition of peptide, at the concentration in brackets
Description: (§1) VIP-related peptides tested in silico for predicted binding affinities to human VPAC1 and VPAC2 (Creative Biolabs). Docking scores show predicted free energy change associated with peptide binding. Note that a greater negative score is predicted to be associated with higher binding affinity. Based upon an initial screen of 300 peptides for binding affinity to VPAC1 and screening a subset of 100 peptides for binding affinity to VPAC2, a select group of peptides were synthesized and tested for their ability to stimulate proliferation of luciferase+ mouse T cells in vitro. The lowest concentration of peptide that led to maximal luminescence is shown. Proliferation data represents the relative level of luminescence from quadruplicate wells containing 1×10E5 T cells/well in a 96 well tissue culture plate stimulated for 96 hours with plate-bound anti-CD3 antibodies. Confirmatory in vivo testing of select peptides was then performed based upon their ability to induce autologous anti-leukemia responses in C57Bl/6 mice that had been previously injected with 1×10E6 C1498 acute myeloid leukemia cells. Leukemia cells were injected on day 0, 10 ug peptide was injected s.c. daily on days 6-12. The predicted binding affinity to VPAC1 and/or VPAC2 was associated with enhanced activity in stimulating mouse T cell proliferation and anti-leukemia activity in mice.

[2] = tested on: C1498 acute myeloid leukemia cells; experiment: survival of mice engrafted with C1498 acute myeloid leukemia; type: in vivo, mouse; parameters: percentage of survival: concentration or dose not given beside the values; conditions: for Median survival time / Percentage alive day 60: 1 x 10E6 C1498 i.v. on day 0, 10 ug peptide s.c. daily on days 6-12; for percentage of survival: FIG. 3, leukemia-bearing mice treated with peptide
Experimental: B6 (CD45.2, H-2K^b) mice were administered C1498 1×10^6/mouse through tail vein. […] Survival of the mice was observed daily. Data were pooled from 3 replicated experiments.
B6 (CD45.2, H-2K^b) mice were administered C1498 1×10^6/mouse through tail vein. […] Survival of the mice was observed daily. Survival of the mice were pooled from 3 replicated experiments and analyzed by log-rank test compared with the survival of mice treated with scrambled peptide.
B6 SJL (CD45.1, H-2K^b) mice were administered C1498 (CD45.2 H-2K^b) 1×10^6/mouse through tail vein. […] The mice were bled weekly from the submandibular vein, starting from day 6, prior to the administration of peptides. Antibodies to CD45.2 identified myeloid leukemia cells and antibodies to CD45.1 identified murine leukocytes of the host.
as §1
To test the ability of the disclosed VIP-R antagonists to effect survival to acute myeloid leukemia survival, B6 (CD45.2, H-2K^b) mice were administered C1498 1×10^6/mouse through tail vein. […] Survival of the mice was observed daily.

[3] = tested on: human T cells; experiment: activation of healthy-donor human T cells (anti-CD3), marker expression by flow cytometry; type: cell-based; conditions: across multiple donors
Experimental: Mean value from ‘Activated’ group shown with dotted line (---) for comparison. Responses from same healthy donors are shown with same color dots. Error bars are computed as the standard error of the mean (SEM) from 6 healthy donor samples.
This study adopted an ex-vivo system using human T cells isolated from healthy donors to screen for novel VIP-R antagonist peptides. Human T cells were cultured over 6 or 24 hours with activation in the presence or absence of peptides and were assessed for percent CD69 surface expression by flow cytometry to measure the state of T cell activation. The activity of the peptides was determined by percent increase in CD69 expression relative to no peptide control. […] We also observed that amongst the donors, most were classified as average responders, with measured value for CD69 expression within the error bars while two others had measured values outside the error bars, one sample reflecting a super-responder (purple dots) and one sample reflecting a slow-responder (green dots) (FIGS. 10A and 10B). […]
Human T cell activation and expansion. […] Cells were counted using Trypan blue dye and phenotyped via flow cytometry on day 9. […]

Sequence	lowest concentration of peptide that led to maximal luminescence [1]	luc+ T cell proliferation [1]	Median survival time [2]	Percentage alive day 60 [2]	percentage of survival [2]	activity compared among the three antagonists (CD69) [3]
KPRRPYAVNCTSLRKQIAVNKYLNSILN [ANT202]	3 µM	171% + 8%	–	–	–	–
KPRRPYAVNYTRLRKQMAVNKYLMSILN [ANT107]	–	–	38 days	30%	20%	–
KPRRPYTVNYTSLRKQIAVKKYLMLILN [ANT195]	3 µM	161% + 23%	38 days	40%	40%	highest activity
KPRRPYADNYTRLRKQMAVNKYLNLILN [ANT058]	–	–	35 days	30%	30%	–
KPRRPYTDNCTRLRKQMAVKKYLNSILN [ANT005]	3 µM	187% + 1%	–	–	–	–
KPRRPYTDNCTSLRKQIAVNKYLNLILN [ANT197]	3 µM	161% + 13%	37 days	35%	35%	–
KPRRPYTDNYTRLRKQMAVKKYLNSILN [VIPhyb, reference compound]	1 µM	197% + 38%	34 days	5%	5%	–
KPRRPYADNCTRLRKQIAVNKKYLNSILN [ANT114]	–	–	34 days	20%	20%	–
KPRRPYINTKLDKLNTRLVSAQNYMKYR [SCRAM2, reference compound]	–	108.74%	–	0%	–	–
KKPRRPYTVNCTSLRKQIAVKKYLMLILN [ANT219]	3 µM	189% + 8%	35 days	20%	20%	–
KPRRPYTSDYTRLRKQMAVKKYLNSILN [ANT300]	0.3 µM	216% + 20%	47 days	33.30%	–	–
HSDAVFINTKLDKLNTRLVSAQNYMKYR [SCRAM1, reference compound]	–	–	28 days	0%	–	–
HSDAVFTDNYTRLRKQMAVKKYLNSILN [VIP, reference compound]	0.1 µM	77% + 13%	30 days	0%	–	–
KPRRPYAVNCTSLRKQIAVKKYLMSILN [ANT203]	3 µM	185% + 8%	34 days	25%	25%	–
KPRRPYAVNYTRLRKQIAVKKYLMSILN [ANT105]	3 µM	121% + 6%	–	–	–	–
